# Laboratory results reported in patent US20180360964A1, “PHARMACEUTICAL COMPOSITION AND A METHOD FOR PRODUCING THEREOF” (priority 2017, published 2018).
# Tests used:
# [1] = Interaction efficiency of drugs with apatite-based matrix (HPLC); format: physicochemical; set-up: concentration or dose not given beside the values; details: for Interaction efficiency (%) of each drug with apatite-based matrix: Table 1, mean±SD, triplicate
# Method: Apatite-based matrix as prepared above was allowed to interact with three types of drugs including cyclophosphamide (Cyp), methotrexate (Mtx) and 5-fluorouracil (5-FU) to form complexes. The complexes were then centrifuged at 13,000 rpm for 15 min and supernatant was discarded without disturbing the pellet. 100 μL of media was added to pellet to form a suspension and the suspension was used to perform high performance liquid chromatography (HPLC) analysis to estimate the concentration of drugs that could be adsorbed to the apatite-based matrix and also to evaluate the interaction efficiency of drugs with apatite-based matrix. The concentration of the drugs present in the supernatant was calculated from the peak area, using the standard curves. Data were represented as interaction efficiency (%) of drugs with apatite-based matrix, calculated using the following formula: […]
# Where [X]free drug and [X]CA-drug are the concentrations of free drug and drug-loaded apatite-based matrix in the supernatant calculated form the standard curves and [X]initial is the total concentration of drugs used to perform HPLC or the total concentration initially mixed for preparation of apatite-drug formulations. Each experiment was done in triplicate and shown as mean±SD.
# (7) Ca^2+ and Sr^2+ Effects of Ca^2+ and Sr^2+ on apatite-based matrix formation were analysed by adding exogenous CaCl2 and SrCl2 in apatite-based matrix fabrication respectively, while keeping other salts being constant. The size of the apatite-based matrix formed with exogenous CaCl2 and SrCl2 were measured, followed by evaluation on the interaction efficiency (%) of apatite-based matrix with drugs which is indicated in Table 2.
# [2] = Cellular uptake of Dox-loaded CA NPs and CMCA NPs; format: cell-based
# From the text: Further, the interaction between CMCA NP and the drug i.e. doxorubicin (denoted briefly as Dox) was studied by comparing the size and binding affinity of CA NP and CMCA NP that were loaded with Dox. The positively charged DOX might bind electrostatically with negatively charged domains (rich in bicarbonate, phosphate or citrate) on CMCA NP and CA NP, causing the net charge of the DOX-loaded CMCA NPs and CA NPs more electropositive than that of the free NPs, as shown in FIGS. 28 (b) and (d). […] In addition, the evaluation on cellular uptake of Dox-loaded CA NPs and CMCA NPs was performed after 1 hour and 4 hours of treatment.
# [3] = test system: MCF7 cell line; assay: Time-dependent cellular uptake by HPLC; format: cell-based
# Method: HPLC was performed to determine time-dependent cellular uptake (%) of pharmaceutical composition and also drug-loaded unmodified apatite-based matrix in MCF7 cell line. Apatite-based matrix was formulated with different Ca^2+ concentrations (7 mM, 8 mM and 9 mM) and 20 uM of drug. Free drug (20 uM) was used as control.
# [4] = Concentration of detected drug accumulated in tumour after intravenous delivery; format: in vivo, mouse; details: gemcitabine accumulated in tumour, 4T1-induced breast tumour mice
# Method: 4T1 cells were inoculated subcutaneously on the mammary pad of mice. […] The injections were intravenously administered twice within an interval of 3 days to a 4T1 cancer cells-induced syngeneic mouse model of breast cancer. Measurements on tumour volume at day 8, 10, 12, 14, 16, 18, 20 and 22 were taken. The concentration of detected drug in tumour were also measured, followed by observation on bio-distribution of drugs in each organ. Six mice per group were used and data were represented as mean±SD of tumour volume.
smiles,measurement,setting,value
"O=c1[nH]cc(F)c(=O)[nH]1 [5-FU, 5-fluorouracil]",Interaction efficiency (%) of each drug with apatite-based matrix,[1],0%
same,Interaction efficiency (%) of each drug with apatite-based matrix,[1]; listed as 5-fluorouracil (5-FU),did not show any affinity
same,Interaction efficiency (%) of each drug with the apatite-based matrix,[1]; matrix formed with CaCl2,0%
same,Interaction efficiency (%) of each drug with the apatite-based matrix,[1]; matrix formed with SrCl2,1.21 ± 0.56%
"O=P1(N(CCCl)CCCl)NCCCO1 (stereo not drawn) [Cyp, cyclophosphamide]",Interaction efficiency (%) of each drug with apatite-based matrix,[1],13.10 ± 5.47%
same,Interaction efficiency (%) of each drug with the apatite-based matrix,[1]; matrix formed with CaCl2,13.10 ± 5.47%
same,Interaction efficiency (%) of each drug with the apatite-based matrix,[1]; matrix formed with SrCl2,11.19 ± 8.16%
"COc1cccc2c1C(=O)c1c(O)c3c(c(O)c1C2=O)C[C@@](O)(C(=O)CO)C[C@@H]3O[C@H]1C[C@H](N)[C@H](O)[C@H](C)O1 [DOX, doxorubicin]",% Cellular uptake 1 hour of treatment,[2]; DOX 1 μM,22.4% ± 1.73
same,% Cellular uptake 4 hours of treatment,[2]; DOX 1 μM,31.71% ± 5.92
same,% Cellular uptake 1 hour of treatment,[2]; DOX 5 μM,24.75% ± 0.14
same,% Cellular uptake 4 hours of treatment,[2]; DOX 5 μM,32.07% ± 0.82
"CC(C)(C#N)c1cc(Cn2cncn2)cc(C(C)(C)C#N)c1 [Free anastrozole, anastrozole]",cellular uptake (%),"[3]; anastrozole 20 uM, 1 h",18.5% ± 2.4
same,cellular uptake (%),"[3]; anastrozole 20 uM, 4 h",47.75% ± 2.3
same,cellular uptake (%),"[3]; anastrozole 20 uM, 24 h",89.5% ± 3
"Nc1ccn([C@@H]2O[C@H](CO)[C@@H](O)C2(F)F)c(=O)n1 [Free gemcitabine, gemcitabine]",Detected Drug Concentration (ng/ml),[4],"27,03333 ng/ml"
same,cellular uptake (%),"[3]; gemcitabine 20 uM, 1 h",30.5% ± 1.2
same,cellular uptake (%),"[3]; gemcitabine 20 uM, 4 h",50.75% ± 2.3
same,cellular uptake (%),"[3]; gemcitabine 20 uM, 24 h",100%
"CN(Cc1cnc2nc(N)nc(N)c2n1)c1ccc(C(=O)N[C@@H](CCC(=O)O)C(=O)O)cc1 [Mtx, methotrexate]",Interaction efficiency (%) of each drug with apatite-based matrix,[1],1.73 ± 0.85%
same,Interaction efficiency (%) of each drug with the apatite-based matrix,[1]; matrix formed with CaCl2,1.73 ± 0.85%
same,Interaction efficiency (%) of each drug with the apatite-based matrix,[1]; matrix formed with SrCl2,27.76 ± 5.62%
